What was measured:
Assay in all cases: radiometric filter-binding kinase assay
PLK1 (human) = PLK1 (human) (UniProt P53350); conditions: ATP 5 µM
EEF2K (human) = EEF2K (human) (UniProt O00418); conditions: ATP 5 µM
RPS6KA3 KD1 KD2 (human) = RPS6KA3 KD1 KD2 (human) (UniProt P51812); conditions: ATP 50 µM
BRSK2 (human) = BRSK2 (human) (UniProt Q8IWQ3); conditions: compound 1.0 µM; ATP 50 µM
RPS6KA1 KD1 KD2 (human) = RPS6KA1 KD1 KD2 (human) (UniProt Q15418); conditions: ATP 50 µM
PIM1 (human) = PIM1 (human) (UniProt P11309); conditions: ATP 20 µM
CHEK1 (human) = CHEK1 (human) (UniProt O14757); conditions: compound 10.0 µM; ATP 20 µM
IKBKE (human) = IKBKE (human) (UniProt Q14164); conditions: ATP 50 µM
MAPK11 (human) = MAPK11 (human) (UniProt Q15759); conditions: compound 10.0 µM; ATP 20 µM
MAPK9 (human) = MAPK9 (human) (UniProt P45984); conditions: compound 1.0 µM; ATP 20 µM
CSNK1D (human) = CSNK1D (human) (UniProt P48730); conditions: compound 10.0 µM; ATP 20 µM
RPS6KA5 KD1 KD2 (human) = RPS6KA5 KD1 KD2 (human) (UniProt O75582); conditions: compound 1.0 µM; ATP 20 µM
PIM2 (human) = PIM2 (human) (UniProt Q9P1W9); conditions: ATP 5 µM
SRC (chicken) = conditions: compound 10.0 µM; ATP 50 µM; accession and sequence are those of the human protein
TBK1 (human) = TBK1 (human) (UniProt Q9UHD2); conditions: compound 1.0 µM; ATP 50 µM
NEK6 (human) = NEK6 (human) (UniProt Q9HC98); conditions: compound 10.0 µM; ATP 50 µM
HIPK3 (human) = HIPK3 (human) (UniProt Q9H422); conditions: ATP 20 µM
MKNK2 (human) = MKNK2 (human) (UniProt Q9HBH9); conditions: compound 10.0 µM; ATP 50 µM
LCK (mouse) = conditions: ATP 50 µM, accession and sequence are those of the human protein
MYLK (human) = MYLK (human) (UniProt Q15746); conditions: ATP 50 µM
AKT1 (human) = AKT1 (human) (UniProt P31749); conditions: ATP 5 µM
MAPK15 (human) = MAPK15 (human) (UniProt Q8TD08); conditions: compound 10.0 µM; ATP 5 µM
PAK6 (human) = PAK6 (human) (UniProt Q9NQU5); conditions: ATP 20 µM
NEK2 (human) = NEK2 (human) (UniProt P51955); conditions: ATP 50 µM
AURKC (human) = AURKC (human) (UniProt Q9UQB9); conditions: ATP 5 µM
STK3 (human) = STK3 (human) (UniProt Q13188); conditions: compound 10.0 µM; ATP 20 µM
MAPKAPK2 (human) = MAPKAPK2 (human) (UniProt P49137); conditions: ATP 20 µM

Chain of AURKC (human) (Q9UQB9 whole entry, looked up): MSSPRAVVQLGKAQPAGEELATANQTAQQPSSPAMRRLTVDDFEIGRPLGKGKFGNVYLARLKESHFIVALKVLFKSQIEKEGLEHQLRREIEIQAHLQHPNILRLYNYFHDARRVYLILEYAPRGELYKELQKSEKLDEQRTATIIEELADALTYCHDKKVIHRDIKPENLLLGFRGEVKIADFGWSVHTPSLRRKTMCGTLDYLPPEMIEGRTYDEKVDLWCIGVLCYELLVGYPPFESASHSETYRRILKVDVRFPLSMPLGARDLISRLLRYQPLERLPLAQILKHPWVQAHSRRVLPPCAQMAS
Chain of PIM1 (human) (P11309 whole entry, looked up): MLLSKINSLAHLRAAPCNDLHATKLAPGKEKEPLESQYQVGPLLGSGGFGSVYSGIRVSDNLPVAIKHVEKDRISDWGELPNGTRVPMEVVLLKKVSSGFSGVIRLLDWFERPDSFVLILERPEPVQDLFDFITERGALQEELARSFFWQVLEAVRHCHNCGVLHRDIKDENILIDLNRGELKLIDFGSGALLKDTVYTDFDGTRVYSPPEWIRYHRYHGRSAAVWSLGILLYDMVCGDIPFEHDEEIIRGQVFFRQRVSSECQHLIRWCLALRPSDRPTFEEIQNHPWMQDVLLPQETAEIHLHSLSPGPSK
Chain of AKT1 (human) (P31749 whole entry, looked up): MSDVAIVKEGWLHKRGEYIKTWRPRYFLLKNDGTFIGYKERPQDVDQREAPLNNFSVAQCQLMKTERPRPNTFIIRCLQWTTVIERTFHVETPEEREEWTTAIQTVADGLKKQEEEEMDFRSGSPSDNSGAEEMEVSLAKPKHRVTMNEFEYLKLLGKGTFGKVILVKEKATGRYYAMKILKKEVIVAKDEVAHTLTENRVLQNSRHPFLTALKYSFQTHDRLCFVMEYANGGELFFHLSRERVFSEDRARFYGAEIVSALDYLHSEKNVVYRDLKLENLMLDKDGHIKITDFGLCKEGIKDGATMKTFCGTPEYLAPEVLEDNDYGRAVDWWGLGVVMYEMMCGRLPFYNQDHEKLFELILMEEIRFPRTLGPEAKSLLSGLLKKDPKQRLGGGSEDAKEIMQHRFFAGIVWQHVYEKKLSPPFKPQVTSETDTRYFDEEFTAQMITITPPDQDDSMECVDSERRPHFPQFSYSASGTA
Chain of PIM2 (human) (Q9P1W9 whole entry, looked up): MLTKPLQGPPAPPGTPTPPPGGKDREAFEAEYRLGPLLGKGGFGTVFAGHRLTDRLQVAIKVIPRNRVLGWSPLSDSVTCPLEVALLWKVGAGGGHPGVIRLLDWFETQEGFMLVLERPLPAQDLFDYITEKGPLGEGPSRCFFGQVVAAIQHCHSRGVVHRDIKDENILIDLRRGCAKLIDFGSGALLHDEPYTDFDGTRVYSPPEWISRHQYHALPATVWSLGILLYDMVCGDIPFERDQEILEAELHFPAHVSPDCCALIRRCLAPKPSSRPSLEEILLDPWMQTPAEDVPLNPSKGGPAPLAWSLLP
Chain of PAK6 (human) (Q9NQU5 whole entry, looked up): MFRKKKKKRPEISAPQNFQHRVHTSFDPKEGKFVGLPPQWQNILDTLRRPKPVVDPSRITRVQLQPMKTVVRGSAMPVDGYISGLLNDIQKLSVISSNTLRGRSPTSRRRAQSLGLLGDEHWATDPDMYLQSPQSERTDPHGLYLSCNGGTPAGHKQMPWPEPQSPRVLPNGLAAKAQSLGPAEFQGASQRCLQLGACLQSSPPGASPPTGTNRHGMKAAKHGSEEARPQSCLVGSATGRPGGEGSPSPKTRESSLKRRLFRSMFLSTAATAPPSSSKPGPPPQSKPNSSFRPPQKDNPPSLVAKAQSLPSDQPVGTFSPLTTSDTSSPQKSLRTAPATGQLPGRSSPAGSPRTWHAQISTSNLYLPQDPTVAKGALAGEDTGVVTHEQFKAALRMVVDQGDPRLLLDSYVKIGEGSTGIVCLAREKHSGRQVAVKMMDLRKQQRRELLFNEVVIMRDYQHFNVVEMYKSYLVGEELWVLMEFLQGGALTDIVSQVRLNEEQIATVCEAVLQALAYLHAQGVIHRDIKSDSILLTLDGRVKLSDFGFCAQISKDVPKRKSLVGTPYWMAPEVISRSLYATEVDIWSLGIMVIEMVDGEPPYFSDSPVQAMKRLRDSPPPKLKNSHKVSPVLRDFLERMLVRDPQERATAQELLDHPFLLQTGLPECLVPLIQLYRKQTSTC
Chain of IKBKE (human) (Q14164 whole entry, looked up): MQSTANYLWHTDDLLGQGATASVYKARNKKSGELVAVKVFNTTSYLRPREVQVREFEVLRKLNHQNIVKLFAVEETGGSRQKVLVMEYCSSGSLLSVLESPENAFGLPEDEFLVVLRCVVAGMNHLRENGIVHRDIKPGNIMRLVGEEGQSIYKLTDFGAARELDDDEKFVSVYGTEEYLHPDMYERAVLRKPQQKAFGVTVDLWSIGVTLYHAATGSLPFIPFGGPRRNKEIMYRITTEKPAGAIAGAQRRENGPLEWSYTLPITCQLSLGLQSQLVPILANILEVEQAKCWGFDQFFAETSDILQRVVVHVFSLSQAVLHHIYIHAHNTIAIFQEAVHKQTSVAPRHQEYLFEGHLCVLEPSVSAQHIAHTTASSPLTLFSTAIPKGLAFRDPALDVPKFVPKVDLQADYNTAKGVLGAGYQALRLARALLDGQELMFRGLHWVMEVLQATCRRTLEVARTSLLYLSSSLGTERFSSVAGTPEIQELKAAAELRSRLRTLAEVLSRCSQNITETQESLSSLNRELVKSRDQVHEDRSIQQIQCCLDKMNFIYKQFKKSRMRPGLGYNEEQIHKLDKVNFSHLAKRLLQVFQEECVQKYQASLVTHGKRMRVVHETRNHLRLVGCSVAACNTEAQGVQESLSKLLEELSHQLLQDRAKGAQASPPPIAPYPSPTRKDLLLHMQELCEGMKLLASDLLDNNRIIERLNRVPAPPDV
Chain of RPS6KA3 KD1 KD2 (human) (P51812 whole entry, looked up): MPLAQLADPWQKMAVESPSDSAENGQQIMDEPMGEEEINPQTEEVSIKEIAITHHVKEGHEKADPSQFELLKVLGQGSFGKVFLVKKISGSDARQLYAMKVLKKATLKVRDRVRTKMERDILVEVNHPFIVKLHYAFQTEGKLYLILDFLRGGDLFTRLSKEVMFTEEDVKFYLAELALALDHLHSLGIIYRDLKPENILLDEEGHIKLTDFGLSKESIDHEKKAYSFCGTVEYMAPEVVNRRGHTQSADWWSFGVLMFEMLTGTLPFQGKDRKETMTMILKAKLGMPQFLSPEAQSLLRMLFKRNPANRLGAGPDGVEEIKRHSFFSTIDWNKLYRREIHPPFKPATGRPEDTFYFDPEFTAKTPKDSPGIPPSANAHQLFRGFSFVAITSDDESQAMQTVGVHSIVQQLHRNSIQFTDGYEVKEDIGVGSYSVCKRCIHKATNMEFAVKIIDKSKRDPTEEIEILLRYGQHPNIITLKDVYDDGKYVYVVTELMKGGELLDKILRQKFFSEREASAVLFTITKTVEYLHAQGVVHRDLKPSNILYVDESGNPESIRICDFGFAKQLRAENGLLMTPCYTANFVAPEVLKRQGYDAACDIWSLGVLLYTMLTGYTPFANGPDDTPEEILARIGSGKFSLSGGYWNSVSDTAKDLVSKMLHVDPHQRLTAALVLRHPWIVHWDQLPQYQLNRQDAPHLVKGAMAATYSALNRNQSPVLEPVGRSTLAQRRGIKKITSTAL
Chain of EEF2K (human) (O00418 whole entry, looked up): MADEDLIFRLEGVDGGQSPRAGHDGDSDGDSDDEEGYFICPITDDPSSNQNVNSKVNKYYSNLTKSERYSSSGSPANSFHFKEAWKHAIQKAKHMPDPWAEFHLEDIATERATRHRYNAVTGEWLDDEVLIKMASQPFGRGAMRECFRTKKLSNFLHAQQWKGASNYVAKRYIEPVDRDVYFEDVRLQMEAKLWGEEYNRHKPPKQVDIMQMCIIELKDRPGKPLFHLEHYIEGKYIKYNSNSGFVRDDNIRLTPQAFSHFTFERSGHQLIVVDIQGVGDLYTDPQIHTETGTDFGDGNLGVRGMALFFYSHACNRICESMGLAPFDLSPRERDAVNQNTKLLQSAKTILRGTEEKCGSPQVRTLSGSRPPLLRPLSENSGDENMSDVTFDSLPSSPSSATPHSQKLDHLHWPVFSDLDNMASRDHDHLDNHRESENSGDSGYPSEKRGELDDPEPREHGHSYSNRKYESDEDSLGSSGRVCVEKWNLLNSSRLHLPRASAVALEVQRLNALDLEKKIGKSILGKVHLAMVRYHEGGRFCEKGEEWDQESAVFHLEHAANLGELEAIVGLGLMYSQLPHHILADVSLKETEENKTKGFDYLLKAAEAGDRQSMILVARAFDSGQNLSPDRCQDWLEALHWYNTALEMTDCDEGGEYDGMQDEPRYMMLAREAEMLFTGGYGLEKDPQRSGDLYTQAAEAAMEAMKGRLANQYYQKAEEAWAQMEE
Chain of RPS6KA1 KD1 KD2 (human) (Q15418 whole entry, looked up): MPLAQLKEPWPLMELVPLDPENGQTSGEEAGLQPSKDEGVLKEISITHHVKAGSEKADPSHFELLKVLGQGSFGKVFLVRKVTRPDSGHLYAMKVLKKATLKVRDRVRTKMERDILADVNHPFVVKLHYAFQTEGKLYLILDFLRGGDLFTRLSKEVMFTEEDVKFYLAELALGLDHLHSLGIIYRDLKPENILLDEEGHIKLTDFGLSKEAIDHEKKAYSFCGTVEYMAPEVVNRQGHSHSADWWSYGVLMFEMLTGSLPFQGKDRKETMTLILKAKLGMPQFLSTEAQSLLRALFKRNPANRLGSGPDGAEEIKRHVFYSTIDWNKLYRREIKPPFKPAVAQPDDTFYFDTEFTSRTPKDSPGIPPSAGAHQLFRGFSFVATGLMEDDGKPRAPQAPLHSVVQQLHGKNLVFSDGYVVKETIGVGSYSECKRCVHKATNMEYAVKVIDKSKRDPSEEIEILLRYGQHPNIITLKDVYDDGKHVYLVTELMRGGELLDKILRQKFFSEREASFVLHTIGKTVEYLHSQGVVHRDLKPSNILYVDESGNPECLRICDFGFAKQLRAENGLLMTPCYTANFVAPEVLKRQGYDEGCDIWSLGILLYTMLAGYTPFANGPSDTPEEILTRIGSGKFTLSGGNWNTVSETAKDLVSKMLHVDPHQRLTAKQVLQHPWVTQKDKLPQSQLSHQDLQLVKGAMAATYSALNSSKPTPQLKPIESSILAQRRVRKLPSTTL

With `CC(C)(N)c1ccc(-c2nc3ccccc3nc2-c2ccccc2)cc1` the residual activity (PLK1 (human); compound 1.0 µM) was 79%, the residual activity (PLK1 (human); compound 10.0 µM) was 90% and the residual activity (EEF2K (human); compound 1.0 µM) was 93%. For the same molecule, the residual activity (EEF2K (human); compound 10.0 µM) was 40%, the residual activity (RPS6KA3 KD1 KD2 (human); compound 1.0 µM) was 80% and the residual activity (RPS6KA3 KD1 KD2 (human); compound 10.0 µM) was 74%. The residual activity (BRSK2 (human)) was 96%, the residual activity (RPS6KA1 KD1 KD2 (human); compound 1.0 µM) was 98% and the residual activity (RPS6KA1 KD1 KD2 (human); compound 10.0 µM) was 67%. The residual activity (PIM1 (human); compound 1.0 µM) was 80%, the residual activity (PIM1 (human); compound 10.0 µM) was 57% and the residual activity (CHEK1 (human)) was 85%. The residual activity (IKBKE (human); compound 1.0 µM) was 87%, the residual activity (IKBKE (human); compound 10.0 µM) was 67% and the residual activity (MAPK11 (human)) was 114%. It also gave a residual activity (MAPK9 (human)) of 105%, a residual activity (CSNK1D (human)) of 111% and a residual activity (RPS6KA5 KD1 KD2 (human)) of 81%. The residual activity (PIM2 (human); compound 1.0 µM) was 88%, the residual activity (PIM2 (human); compound 10.0 µM) was 89% and the residual activity (SRC (chicken)) was 118%. For the same molecule, the residual activity (TBK1 (human)) was 101%, the residual activity (NEK6 (human)) was 75% and the residual activity (HIPK3 (human); compound 1.0 µM) was 77%. For the same molecule, the residual activity (HIPK3 (human); compound 10.0 µM) was 66%, the residual activity (MKNK2 (human)) was 80% and the residual activity (LCK (mouse); compound 1.0 µM) was 84%. The residual activity (LCK (mouse); compound 10.0 µM) was 65%, the residual activity (MYLK (human); compound 1.0 µM) was 79% and the residual activity (MYLK (human); compound 10.0 µM) was 11%. For the same molecule, the residual activity (AKT1 (human); compound 1.0 µM) was 22%, the residual activity (AKT1 (human); compound 10.0 µM) was 8% and the residual activity (MAPK15 (human)) was 71%. The residual activity (PAK6 (human); compound 1.0 µM) was 116%, the residual activity (PAK6 (human); compound 10.0 µM) was 92% and the residual activity (NEK2 (human); compound 1.0 µM) was 91%. It also gave a residual activity (NEK2 (human); compound 10.0 µM) of 100%, a residual activity (AURKC (human); compound 1.0 µM) of 75% and a residual activity (AURKC (human); compound 10.0 µM) of 66%. For the same molecule, the residual activity (STK3 (human)) was 78%, the residual activity (MAPKAPK2 (human); compound 1.0 µM) was 84% and the residual activity (MAPKAPK2 (human); compound 10.0 µM) was 60%.

Reference: the kinase profiling compilation of Christmann-Franck et al. (2016)
